Literature values as cited in US20190209710A1, “[…] AND CHEWING GUM […] A […] FOR THE TASTE-BASED DETECTION OF VIRUSES” (Julius-Maximilians-Universitaet Wuerzburg, priority 2016, published 2019).

Legend:
viral sialidases = details: literature: Beau et al., Eur. J. Biochem., 106 (1980) 531-540
bacterial sialidases = details: literature: Beau et al., Eur. J. Biochem., 106 (1980) 531-540

Structure (SMILES): CO[C@H]1CC(O)(C(=O)O)O[C@@H]([C@H](O)[C@H](O)CO)[C@@H]1NC(C)=O (some centres unmarked) [4-methoxy-Neu5Ac]
- cleavage by viral sialidases (viral sialidases): very quickly
- cleavage by bacterial sialidases (bacterial sialidases): not cut
